Source: patent publication US11344601B2, “Tumor microenvironment-related target TAK1 and application thereof in inhibition of tumor” (Shanghai Institutes for Biological Sciences, Chinese …, priority 2017, dated 2022)

What was measured:
[1] = target: T1, ATM (Homo sapiens, UniProt Q13315); experiment: p-ATM antibody-mediated IP of bleomycin-treated PSC27 cells (ATM-TRAF6 interaction); format: cell-based; conditions: bleomycin-treated stromal cells
T1 construct: endogenous in cells; host or cells: PSC27 human prostate stromal cells
Protocol: Phosphorylated ATM (p-ATM) antibody-mediated IP analysis. The expression levels of TRAF6, p-ATM and ATM in IP precipitates were detected by Western blot. TRAF6, a loading control. PSC27 was treated with bleomycin (50 ug/ml) and then with the ATM small molecule inhibitor KU55933 (KU, 10 μM).

[2] = test system: NSCLC cell line A549/stromal cell line W138 xenograft tumors; experiment: NSCLC xenograft (A549/W138) preclinical chemotherapy, terminal tumor volume; format: in vivo, mice; conditions: chemotherapy alone (group 6 vs group 5)
Protocol: (§1) FIG. 83. Statistical comparative analysis of terminal tumor volumes in NSCLC tumors transplanted mice (NSCLC cell line A549/stromal cell line […]1 for administration alone or in combination with bleomycin-based chemotherapy). […] All experimental mouse experiments were carried out in strict accordance with the relevant regulations of the Institutional animal care and use committee (IACUC) of the shanghai Institute of Life Sciences of the Chinese Academy of Sciences. ICR-SCID mice at an age of about 6 weeks (about 25 g in body weight) were used in this patent-related animal experiment. Stromal cells PSC27 and epithelial cells were mixed at a ratio of 1:4, with each implant containing 1.25×10^6 cells for tissue recombination. The transplant tumor was implanted into mice subcutaneously, and the animals were euthanized at the end of Week 8 after transplantation. The tumor volume was calculated according to the following formula: […] Similarly, lung and breast cancer xenograft tumors were formed by tissue recombination with A549 (non-small cell lung cancer cell line) and W138 (lung fibroblast line), MDA-MB-231 (triple negative breast cancer cell line) and HBF1203 (breast fibroblast line), respectively. In the preclinical chemotherapy trial, mice subcutaneously transplanted with tumors were fed standard experimental diet. […]

[3] = test system: BCa cell line MDA-MB-231/stromal cell line HBF1203 xenograft tumors; experiment: BCa xenograft (MDA-MB-231/HBF1203) preclinical chemotherapy, terminal tumor volume; format: in vivo, mice; conditions: chemotherapy alone (group 6 vs group 5), MDA-MB-231/HBF1203 tumors
Protocol: as §1, with “84.” for “83.”, “BCa” for “NSCLC”, “(BCa” for “(NSCLC”, “MDA-MB-231/stromal” for “A549/stromal”, “combined” for “in combination”, “bleomycin for” for “bleomycin-based”

T1 sequence (Q13315 whole entry): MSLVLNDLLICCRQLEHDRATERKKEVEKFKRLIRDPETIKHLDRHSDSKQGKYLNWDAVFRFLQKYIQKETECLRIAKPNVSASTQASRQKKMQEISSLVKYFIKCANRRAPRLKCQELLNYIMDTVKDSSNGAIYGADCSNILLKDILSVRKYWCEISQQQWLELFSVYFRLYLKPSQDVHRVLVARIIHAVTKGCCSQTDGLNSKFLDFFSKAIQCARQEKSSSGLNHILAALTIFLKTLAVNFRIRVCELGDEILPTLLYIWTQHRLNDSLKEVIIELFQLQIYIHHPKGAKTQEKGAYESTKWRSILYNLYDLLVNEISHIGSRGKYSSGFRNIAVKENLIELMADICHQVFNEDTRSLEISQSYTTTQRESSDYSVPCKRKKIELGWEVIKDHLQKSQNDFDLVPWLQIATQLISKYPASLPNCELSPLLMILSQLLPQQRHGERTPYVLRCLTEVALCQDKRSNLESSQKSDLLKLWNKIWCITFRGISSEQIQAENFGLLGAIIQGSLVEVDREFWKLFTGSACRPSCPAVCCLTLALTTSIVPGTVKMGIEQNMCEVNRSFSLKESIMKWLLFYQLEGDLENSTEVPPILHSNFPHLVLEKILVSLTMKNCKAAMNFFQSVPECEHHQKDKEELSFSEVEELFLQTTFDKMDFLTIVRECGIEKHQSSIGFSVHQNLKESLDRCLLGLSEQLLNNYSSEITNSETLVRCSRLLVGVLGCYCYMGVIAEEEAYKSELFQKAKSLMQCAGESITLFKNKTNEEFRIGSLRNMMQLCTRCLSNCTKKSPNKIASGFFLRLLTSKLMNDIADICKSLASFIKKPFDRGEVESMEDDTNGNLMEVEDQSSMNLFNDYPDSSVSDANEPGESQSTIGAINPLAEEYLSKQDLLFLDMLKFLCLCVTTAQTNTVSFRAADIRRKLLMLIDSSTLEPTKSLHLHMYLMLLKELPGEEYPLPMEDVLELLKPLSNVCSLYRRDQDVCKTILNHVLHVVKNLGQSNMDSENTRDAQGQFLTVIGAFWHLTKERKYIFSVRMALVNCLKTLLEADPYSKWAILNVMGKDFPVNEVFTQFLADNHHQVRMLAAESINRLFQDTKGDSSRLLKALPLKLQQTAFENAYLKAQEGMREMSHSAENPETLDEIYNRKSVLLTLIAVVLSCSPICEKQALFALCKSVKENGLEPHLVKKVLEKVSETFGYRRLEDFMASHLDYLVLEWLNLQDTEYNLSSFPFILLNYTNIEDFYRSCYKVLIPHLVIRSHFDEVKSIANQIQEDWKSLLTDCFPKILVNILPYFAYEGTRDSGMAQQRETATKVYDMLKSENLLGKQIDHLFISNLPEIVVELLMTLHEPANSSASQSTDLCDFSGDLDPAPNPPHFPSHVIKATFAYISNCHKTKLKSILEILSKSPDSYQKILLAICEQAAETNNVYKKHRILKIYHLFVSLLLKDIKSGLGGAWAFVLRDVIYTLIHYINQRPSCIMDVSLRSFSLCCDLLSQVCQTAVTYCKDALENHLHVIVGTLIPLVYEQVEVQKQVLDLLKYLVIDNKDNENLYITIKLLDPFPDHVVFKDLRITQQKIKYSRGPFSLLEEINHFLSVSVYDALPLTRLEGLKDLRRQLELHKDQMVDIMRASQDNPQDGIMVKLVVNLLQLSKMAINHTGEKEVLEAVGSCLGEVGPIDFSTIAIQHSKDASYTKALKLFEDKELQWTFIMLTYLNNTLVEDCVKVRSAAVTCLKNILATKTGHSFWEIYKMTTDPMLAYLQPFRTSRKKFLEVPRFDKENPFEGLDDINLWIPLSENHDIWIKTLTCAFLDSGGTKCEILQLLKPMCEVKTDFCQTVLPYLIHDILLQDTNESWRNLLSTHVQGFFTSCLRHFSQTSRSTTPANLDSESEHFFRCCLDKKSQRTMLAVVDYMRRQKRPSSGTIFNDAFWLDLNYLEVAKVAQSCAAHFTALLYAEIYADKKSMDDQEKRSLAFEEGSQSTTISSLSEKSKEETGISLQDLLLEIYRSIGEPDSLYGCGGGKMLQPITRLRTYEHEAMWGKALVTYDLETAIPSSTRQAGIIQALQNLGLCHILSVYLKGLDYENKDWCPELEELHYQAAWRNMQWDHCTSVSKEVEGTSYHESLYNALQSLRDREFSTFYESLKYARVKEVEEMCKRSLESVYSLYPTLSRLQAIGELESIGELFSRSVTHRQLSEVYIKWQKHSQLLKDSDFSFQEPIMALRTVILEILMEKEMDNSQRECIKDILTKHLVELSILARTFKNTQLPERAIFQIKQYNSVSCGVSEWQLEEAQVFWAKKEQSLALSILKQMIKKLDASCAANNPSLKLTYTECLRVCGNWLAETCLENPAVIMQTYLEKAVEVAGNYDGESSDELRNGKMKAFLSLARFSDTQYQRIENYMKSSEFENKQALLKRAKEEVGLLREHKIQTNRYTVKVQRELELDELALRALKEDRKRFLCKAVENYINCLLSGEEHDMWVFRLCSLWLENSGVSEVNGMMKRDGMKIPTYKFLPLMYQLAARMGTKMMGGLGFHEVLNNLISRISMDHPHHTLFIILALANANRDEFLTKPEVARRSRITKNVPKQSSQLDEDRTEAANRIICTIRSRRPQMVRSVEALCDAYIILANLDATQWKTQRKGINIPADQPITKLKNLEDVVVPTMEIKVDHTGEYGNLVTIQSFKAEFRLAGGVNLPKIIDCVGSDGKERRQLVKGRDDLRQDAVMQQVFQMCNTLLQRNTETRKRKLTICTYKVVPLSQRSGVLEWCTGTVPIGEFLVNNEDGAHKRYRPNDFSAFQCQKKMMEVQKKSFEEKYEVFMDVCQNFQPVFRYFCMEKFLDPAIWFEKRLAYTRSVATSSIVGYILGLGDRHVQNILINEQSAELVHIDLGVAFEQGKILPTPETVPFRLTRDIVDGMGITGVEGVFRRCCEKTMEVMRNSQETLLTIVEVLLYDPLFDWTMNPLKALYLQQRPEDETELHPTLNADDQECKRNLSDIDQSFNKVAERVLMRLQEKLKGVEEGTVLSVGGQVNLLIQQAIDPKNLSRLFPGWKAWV

Compound	interaction between activated ATM and TRAF6 [1]	decrease in terminal tumor volume [2] [%]	decrease in terminal tumor volume [3] [%]
O=c1cc(-c2cccc3c2Sc2ccccc2S3)oc(N2CCOCC2)c1 [KU55933]	abolished	–	–
bleomycin	–	38	32
